These are literature values, as cited in patent publication US20100297230A1, “COMPOSITIONS AND METHODS FOR PROSTATE AND MENSTRUAL/MENOPAUSAL RELATED HEALTH” (priority 2009, published 2010).

“Also recorded” adds a separate entry of the source. Like-named read-outs stand apart in the source and are kept apart here.

Series [1] relates to rats with prostatic hyperplasia. Conditions: testosterone enanthate treated rats; 0.1 mg benzylglucosinolate.
The conditions of series [2]: single dose of Epimedium tea.
The conditions of series [3]: in vivo.
The next series deals with estrogen receptor beta (Homo sapiens, UniProt Q92731).
estrogen receptor beta, sequence (Q92731 whole entry, species assumed): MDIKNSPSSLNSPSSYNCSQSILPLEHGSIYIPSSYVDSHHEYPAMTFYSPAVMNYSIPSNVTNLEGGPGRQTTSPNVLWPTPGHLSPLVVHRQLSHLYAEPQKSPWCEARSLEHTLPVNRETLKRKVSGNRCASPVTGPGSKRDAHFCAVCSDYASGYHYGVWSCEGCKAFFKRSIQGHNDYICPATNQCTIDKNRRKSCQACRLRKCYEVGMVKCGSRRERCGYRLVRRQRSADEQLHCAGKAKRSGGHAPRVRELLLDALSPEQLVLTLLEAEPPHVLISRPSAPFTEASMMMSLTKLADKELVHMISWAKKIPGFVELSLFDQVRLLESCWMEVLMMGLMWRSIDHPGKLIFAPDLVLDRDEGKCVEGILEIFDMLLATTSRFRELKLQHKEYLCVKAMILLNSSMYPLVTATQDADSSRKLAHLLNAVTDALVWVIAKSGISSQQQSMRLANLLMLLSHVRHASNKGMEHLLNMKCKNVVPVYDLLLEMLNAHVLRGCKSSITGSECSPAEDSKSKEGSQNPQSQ
In series [4] the test system is late postmenopausal women. Conditions: daily 60 mg icariin, 15 mg daidzein, 3 mg genistein; over 25 months; compared to placebo.
Series [5] addresses T1, primary alpha receptor (estrogen receptor) (Homo sapiens, UniProt P03372).
T1 sequence (P03372 1-595): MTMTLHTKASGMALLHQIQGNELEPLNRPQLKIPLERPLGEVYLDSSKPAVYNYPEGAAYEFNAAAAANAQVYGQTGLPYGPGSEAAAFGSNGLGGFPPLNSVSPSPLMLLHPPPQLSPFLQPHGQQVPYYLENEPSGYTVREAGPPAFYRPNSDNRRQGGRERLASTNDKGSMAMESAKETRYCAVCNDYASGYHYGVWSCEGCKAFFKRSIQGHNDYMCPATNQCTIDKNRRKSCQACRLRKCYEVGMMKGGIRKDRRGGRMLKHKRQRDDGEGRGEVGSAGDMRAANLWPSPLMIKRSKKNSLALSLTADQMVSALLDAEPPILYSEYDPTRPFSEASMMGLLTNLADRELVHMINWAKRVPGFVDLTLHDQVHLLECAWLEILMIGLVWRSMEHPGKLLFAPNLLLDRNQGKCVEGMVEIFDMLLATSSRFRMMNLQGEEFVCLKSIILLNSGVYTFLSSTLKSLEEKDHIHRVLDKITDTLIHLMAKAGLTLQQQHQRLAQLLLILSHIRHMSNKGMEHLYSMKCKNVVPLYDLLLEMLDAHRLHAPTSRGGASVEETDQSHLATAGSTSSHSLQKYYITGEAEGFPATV

For series [6], the system named is human prostatic smooth muscle cells.
Series [7] has as its system human prostate carcinoma PC-3 cells. The conditions noted are these: in vitro.
Another series concerns MMP2. Conditions: PC-3 cells.
The subject of a further series is rats. Conditions: for prostate and seminal vesicle size: 270 mg/kg daily injection, compared to all other treatments, P<0.05.
The conditions of series [8]: male and female subjects 18-55 yrs.
In another series the test system is MMP9. The conditions noted are these: PC-3 cells.

Take `O=S(=O)(O)O/N=C(\Cc1ccccc1)S[C@@H]1O[C@H](CO)[C@@H](O)[C@H](O)[C@H]1O` [Benzylglucosinolate]: in series [1], the prostate weight entry is “as effective at reducing prostate weight as 0.1 mg finasteride”.
With `CC(C)=CCc1c(O)cc(O)c2c(=O)c(O)c(-c3ccc(O)cc3)oc12` [Desmethylicaritin], in [2] (desmethyl-icaritin 0.19 mg), the serum desmethylicaritin result is listed as “not detected”.
For `O=C(/C=C/c1ccc(O)c(O)c1)O[C@H](Cc1ccc(O)c(O)c1)C(=O)O` [Rosmarinic acid], the “AP-1-dependent activation of COX-2 expression” value with COX-2 expression is recorded as “potential preventative effects”. Moreover, in series [3], the metabolic conversion result is “converted to 3-O-methyl rosmarinic acid” and the “time to enter the system after administration” value is no more than 20 min.
In the case of `COc1ccc(-c2oc3c(CC=C(C)C)c(O[C@@H]4O[C@H](CO)[C@@H](O)[C@H](O)[C@H]4O)cc(O)c3c(=O)c2O[C@@H]2O[C@@H](C)[C@H](O)[C@@H](O)[C@H]2O)cc1` [icariin, 5-hydroxy-2-(4-methoxyphenyl)-8-(3-methylbut-2-enyl)-7-[(2S,3R,4S,5S,6R)-3,4,5-trihydroxy-6-(hydroxymethyl)oxan-2-yl]oxy-3-[(2S,3R,4R,5R,6S)-3,4,5-trihydroxy-6-methyloxan-2-yl]oxychromen-4-one], the “interaction with estrogen receptor beta” value at estrogen receptor beta is “interact with estrogen receptor beta; also recorded: targets the beta receptor over the alpha receptor”. The “bone mass density / bone loss” value in [4] is “increases bone density”. Further, in series [2] (12.6 mg icariin ingested), the “peak serum icariin concentration” value is recorded as 2.1 ng/mL. Besides, the “interaction with estrogen receptor alpha” value in series [5] is given as “not with the primary alpha receptor”.
Turning to `COc1ccc(-c2oc3c(CC=C(C)C)c(O)cc(O)c3c(=O)c2O)cc1` [icaritin], in series [6], the “apoptosis of human prostatic smooth muscle cells” value is on record as “inducing apoptosis; also recorded: induces apoptosis”; the “cyclin D1 and CDK4 expression” value is on record as “decreases”; the “growth of human prostatic smooth muscle cells” value is recorded as “reduces the growth”. Besides, the “growth of prostate carcinoma cells” value in [7] is listed as “inhibit prostate cancer cell growth”. The “growth of prostate carcinoma cells” value in series [7] (listed as Icaritin) is on record as “strongly inhibited growth”. Besides, in series [2], the “time of peak icaritin level” value is 8 h.
On to `O=c1c(O)c(-c2ccc(O)c(O)c2)oc2cc(O)cc(O)c12` [quercetin, 2-(3,4-dihydroxyphenyl)-3,5,7-trihydroxy-4H-chromen-4-one], for which the MMP2 activity result in the series on MMP2 (P<0.05) is “significantly inhibited”. In addition, the MMP2 expression result in the series with MMP2 (dose dependent manner) was “inhibited”. Besides, the entries for the “prostate and seminal vesicle size” value with rats and with rats (listed as Quercetin) were “decreased significantly” and “effective at reducing prostate size”, respectively. For the same compound, in the series with rats (270 mg/kg group), the “sperm quality and sexual organ function” value is on record as “positive effect”. For the same compound, the peak plasma concentration in series [8] is 463 ng/mL. Moreover, the “time to peak plasma concentration” value in [8] is 3.5 h. The MMP9 activity entry in the series on MMP9 (P<0.05) is recorded as “significantly inhibited”. For the same compound, the MMP9 expression result in the series on MMP9 (dose dependent manner) is given as “inhibited”.
